What all share (format): ADME
Data set [1] deals with T1, UDP-glucuronosyltransferase 1A10 (Homo sapiens, UniProt Q9HAW8).
T1 sequence (Q9HAW8 whole entry): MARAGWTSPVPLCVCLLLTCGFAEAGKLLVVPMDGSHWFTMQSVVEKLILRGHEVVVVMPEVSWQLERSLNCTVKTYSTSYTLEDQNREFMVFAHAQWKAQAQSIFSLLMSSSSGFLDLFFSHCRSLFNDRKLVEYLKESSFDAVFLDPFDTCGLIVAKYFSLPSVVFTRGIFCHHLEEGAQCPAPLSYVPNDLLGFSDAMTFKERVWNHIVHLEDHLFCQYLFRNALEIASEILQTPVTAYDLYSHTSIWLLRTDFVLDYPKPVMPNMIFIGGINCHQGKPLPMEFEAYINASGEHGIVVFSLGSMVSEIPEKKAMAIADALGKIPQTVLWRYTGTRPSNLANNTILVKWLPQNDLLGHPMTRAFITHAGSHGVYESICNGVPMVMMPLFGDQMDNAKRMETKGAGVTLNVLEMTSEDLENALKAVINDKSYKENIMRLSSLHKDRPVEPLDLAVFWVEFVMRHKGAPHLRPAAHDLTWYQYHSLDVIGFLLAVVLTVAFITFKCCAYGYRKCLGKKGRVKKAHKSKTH
The data set is described as follows: Activity of human recombinant UGT1A10 at 100 uM. The conditions noted are these: recombinant enzyme.

Data set [2] has as its target T2, UDP-glucuronosyltransferase 1A9 (Homo sapiens, UniProt O60656).
T2 sequence (O60656 whole entry): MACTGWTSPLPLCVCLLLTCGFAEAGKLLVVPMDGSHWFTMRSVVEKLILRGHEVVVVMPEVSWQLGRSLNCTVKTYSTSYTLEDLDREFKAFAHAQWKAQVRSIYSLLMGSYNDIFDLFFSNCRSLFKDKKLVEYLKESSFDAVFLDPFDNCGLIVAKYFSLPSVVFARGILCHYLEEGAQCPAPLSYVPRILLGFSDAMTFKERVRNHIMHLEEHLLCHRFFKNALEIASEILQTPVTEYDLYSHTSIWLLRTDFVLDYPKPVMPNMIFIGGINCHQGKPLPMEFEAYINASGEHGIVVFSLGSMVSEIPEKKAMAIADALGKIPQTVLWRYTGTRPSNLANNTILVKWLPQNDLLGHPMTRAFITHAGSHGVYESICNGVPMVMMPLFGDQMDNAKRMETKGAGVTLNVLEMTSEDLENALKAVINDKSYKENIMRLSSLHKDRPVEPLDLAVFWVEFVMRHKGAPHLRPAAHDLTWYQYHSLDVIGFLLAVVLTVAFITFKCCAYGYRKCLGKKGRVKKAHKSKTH
The experiment in a line: Activity of human recombinant UGT1A9 at 100 uM. The conditions noted are these: recombinant enzyme.

Data set [3] addresses T3, UDP-glucuronosyltransferase 1A7 (Homo sapiens, UniProt Q9HAW7).
T3 sequence (Q9HAW7 whole entry): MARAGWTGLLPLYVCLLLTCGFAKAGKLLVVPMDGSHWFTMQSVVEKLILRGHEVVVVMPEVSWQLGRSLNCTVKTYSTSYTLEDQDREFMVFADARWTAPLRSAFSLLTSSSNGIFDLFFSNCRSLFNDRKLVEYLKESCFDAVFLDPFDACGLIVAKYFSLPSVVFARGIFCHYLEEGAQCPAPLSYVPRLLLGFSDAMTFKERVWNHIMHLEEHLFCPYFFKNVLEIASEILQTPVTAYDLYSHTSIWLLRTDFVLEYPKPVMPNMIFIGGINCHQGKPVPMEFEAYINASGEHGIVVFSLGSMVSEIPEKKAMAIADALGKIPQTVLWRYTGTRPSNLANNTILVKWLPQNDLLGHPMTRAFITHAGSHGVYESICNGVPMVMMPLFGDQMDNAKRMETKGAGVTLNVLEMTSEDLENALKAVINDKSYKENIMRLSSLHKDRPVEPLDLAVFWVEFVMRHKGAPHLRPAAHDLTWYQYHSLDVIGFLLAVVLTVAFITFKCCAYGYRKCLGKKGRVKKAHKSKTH
The data set is described as follows: Drug level assessed as human recombinant UGT1A7-mediated glucuronidation treated with 25 uM irilone incubated for 5 mins prior to UDPGA addition measured after 90 mins by HPLC-DAD analysis. The conditions noted are these: recombinant enzyme, 1.5 h.

Data set [4] concerns the target T4, UDP-glucuronosyltransferase 1A1 (Homo sapiens, UniProt P22309).
T4 sequence (P22309 whole entry): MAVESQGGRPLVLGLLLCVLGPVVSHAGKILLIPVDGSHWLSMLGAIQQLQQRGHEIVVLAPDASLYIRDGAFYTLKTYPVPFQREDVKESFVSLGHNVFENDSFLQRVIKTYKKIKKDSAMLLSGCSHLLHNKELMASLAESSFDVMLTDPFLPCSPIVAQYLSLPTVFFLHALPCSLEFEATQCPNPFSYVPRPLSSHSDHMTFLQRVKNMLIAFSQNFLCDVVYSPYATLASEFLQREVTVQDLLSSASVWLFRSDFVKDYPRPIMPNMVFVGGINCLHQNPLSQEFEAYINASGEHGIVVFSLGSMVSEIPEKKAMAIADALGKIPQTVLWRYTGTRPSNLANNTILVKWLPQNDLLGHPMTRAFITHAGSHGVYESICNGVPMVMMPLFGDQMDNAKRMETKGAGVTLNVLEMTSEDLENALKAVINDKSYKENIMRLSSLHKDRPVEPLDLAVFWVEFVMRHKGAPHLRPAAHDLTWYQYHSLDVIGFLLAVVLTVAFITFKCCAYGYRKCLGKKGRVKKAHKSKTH
The experiment in a line: Drug level assessed as human recombinant UGT1A1-mediated glucuronidation treated with 25 uM irilone incubated for 5 mins prior to UDPGA addition measured after 90 mins by HPLC-DAD analysis. The conditions noted are these: recombinant enzyme, 1.5 h.

The target of data set [5] is T2, UDP-glucuronosyltransferase 1A9. The data set is described as follows: Drug level assessed as human recombinant UGT1A9-mediated glucuronidation formation treated with irilone incubated for 5 mins prior to UDPGA addition measured after 90 mins by HPLC-DAD analysis. To be noted: recombinant enzyme, 1.5 h.
Data set [6] deals with T5, UDP-glucuronosyltransferase 1A8 (Homo sapiens, UniProt Q9HAW9).
T5 sequence (Q9HAW9 whole entry): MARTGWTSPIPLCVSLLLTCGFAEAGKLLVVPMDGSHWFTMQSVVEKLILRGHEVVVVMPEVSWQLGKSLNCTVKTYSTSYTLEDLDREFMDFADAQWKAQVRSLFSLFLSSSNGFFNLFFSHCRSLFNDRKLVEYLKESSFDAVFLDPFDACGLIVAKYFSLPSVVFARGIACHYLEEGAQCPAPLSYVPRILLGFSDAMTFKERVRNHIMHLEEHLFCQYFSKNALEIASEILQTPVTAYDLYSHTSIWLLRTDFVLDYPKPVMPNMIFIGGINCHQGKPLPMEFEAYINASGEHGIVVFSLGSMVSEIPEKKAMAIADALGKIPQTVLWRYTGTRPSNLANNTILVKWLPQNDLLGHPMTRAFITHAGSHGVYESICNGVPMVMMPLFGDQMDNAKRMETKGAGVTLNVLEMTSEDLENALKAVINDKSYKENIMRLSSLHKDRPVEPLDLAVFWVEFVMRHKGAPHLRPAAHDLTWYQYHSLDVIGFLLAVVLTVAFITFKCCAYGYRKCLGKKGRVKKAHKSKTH
The experiment in a line: Drug level assessed as human recombinant UGT1A8-mediated glucuronidation treated with 25 uM irilone incubated for 5 mins prior to UDPGA addition measured after 90 mins by HPLC-DAD analysis. To be noted: recombinant enzyme, 1.5 h.

Data set [7] has as its target T1, UDP-glucuronosyltransferase 1A10. The experiment in a line: Activity of human recombinant UGT1A10 assessed as […]-O-4'-monoglucuronide formation incubated for 5 mins prior to UDPGA addition measured after 90 mins by HPLC-DAD analysis. To be noted: recombinant enzyme, 1.5 h.
Data set [8] deals with T2, UDP-glucuronosyltransferase 1A9. The data set is described as follows: Activity of human recombinant UGT1A9 assessed as […]-O-4'-monoglucuronide formation incubated for 5 mins prior to UDPGA addition measured after 90 mins by HPLC-DAD analysis. The conditions noted are these: recombinant enzyme, 1.5 h.

This note sets out measurements from ChEMBL document CHEMBL3525955, “Glucuronidation of the red clover isoflavone irilone by liver microsomes from different species and human UDP-glucuronosyltransferases” (Drug Metab Dispos, 2011).

In the case of `O=c1c(-c2ccc(O)cc2)coc2cc(O)ccc12` [DAIDZEIN], the Activity in data set [1] and in data set [2] was 0.5 nmol/mg/min in each case.
Regarding `O=C(O)[C@H]1O[C@@H](Oc2c3c(cc4occ(-c5ccc(O)cc5)c(=O)c24)OCO3)[C@H](O)[C@@H](O)[C@@H]1O`, the Drug metabolism result in data set [3], in data set [4], in data set [5] and in data set [6] was “metabolite_detected” throughout.
Turning to `O=c1c(-c2ccc(O)cc2)coc2cc(O)cc(O)c12` [GENISTEIN], the Activity in data set [1] and in data set [2] was 0.5 nmol/mg/min each time.
With `COc1c2c(cc3occ(-c4ccc(O)cc4)c(=O)c13)OCO2` [IRISOLONE], the Drug metabolism result in data set [7] is “metabolite_detected”; in data set [8], “metabolite_not_detected”.
